The results in this text go back to paper PMC9169222, “Impedance-Based Phenotypic Readout of Transporter Function: A Case for Glutamate Transporters” (Frontiers in Pharmacology, 2022).

The test system of assay [1] is JumpIn-EAAT1-LifeAct-GFP cells. In words: Automated confocal microscopy of the actin cytoskeleton (cell spreading). The class given is cell-based, human. As to conditions: dox-induced cells, 1 mM, within 2 h. The method, then: For visualization of the actin cytoskeleton, JumpIn-EAAT1 cells were transduced with a lentiviral GFP-LifeAct cDNA expression vector and were maintained in culture medium containing 2 μg/ml puromycin to select for successfully transduced cells.
JumpIn-EAAT1-LifeAct-GFP cells were seeded at 20,000 cells/well on a SCREENSTAR black-walled clear-bottom 96-well culture plate in 90 µl culture medium and grown for 24 h at 37°C and 5% CO2. […] Microscopy was performed on a Nikon Eclipse Ti2 C2+ confocal microscope (Nikon, Amsterdam, Netherlands). This system was equipped with a 37°C incubation chamber, an automated xy-stage, an integrated Perfect Focus System (PFS) and 408, 488, and 561 nm lasers. The system was controlled by Nikon’s NIS software. All images were acquired using a Plan-Apochromat ×20 objective with 0.75 NA, at a resolution of 512 × 512 pixels.

Assay [2] addresses T1, EAAT1 (JumpIn-EAAT1-mock cells) (Homo sapiens, UniProt P43003).
T1 construct: expressed in transfected cells; host or cells: Jump In T-REx HEK 293
In words: Impedance-based TRACT assay (xCELLigence) on mock-transfected JumpIn-EAAT1 cells. The class given is cell-based. As to conditions: no inhibitor. The method, then:
(§1) In short, cells are cultured in medium on gold-plated electrodes in microwell E-plates.
(§2) Assays were performed at 37°C and 5% CO2 in 96-well PET E-plates in a total volume of 100 µl per well. Prior to cell seeding, the baseline impedance (Z0) was measured in the recording station in 40 µl (two compound additions) or 45 µl (one compound addition) medium in the presence (+) or absence (−) of 1 μg/ml dox. All compounds were diluted in phosphate-buffered saline (PBS) and added in 5 µl per addition using a VIAFLO 96 handheld electronic 96 channel pipette (INTEGRA Biosciences, Tokyo, Japan). When DMSO was used as a solvent for a compound, the final amount of DMSO was kept at 0.1% per well and was included in the vehicle (PBS/DMSO). All conditions were tested at two technical replicates per plate.
Transiently transfected JumpIn-EAAT1 cells were detached using only PBS/EDTA. The E-plate was left to rest at room temperature for 30 min prior to replacement in the recording station at 37°C and 5% CO2. Cell growth was recorded overnight for 22 h. If a pretreatment was required for the experiment, the cells were pretreated after 22 h with either a concentration of inhibitor or vehicle (PBS/DMSO) and cells were monitored for 60 min. For GPCR antagonist experiments, a maximum concentration of LY341495 (1 µM) was used. […] After the pretreatment, cells were stimulated with substrate or vehicle (PBS). […] After stimulation the impedance was measured for at least 2 h. […] Properly washed plates were re-used up to two times.
(§3) Experimental data was recorded using RTCA Software v2.0 or v2.1.1 (ACEA Biosciences). In the RTCA Software CI values were normalized to the time point prior to substrate/agonist stimulation resulting in normalized Cell Index (nCI) values. The nCI data were exported and subsequent analyses and data visualizations were done using GraphPad Prism v9 (GraphPad Software, San Diego, CA, United States). […] The potency values of substrates and inhibitory potencies of EAAT inhibitors were determined by fitting the net AUC data to a sigmoidal concentration-effect curve with a variable slope.

Assay [3] concerns the target EAAT1 (endogenous, MDA-MB-468 cells) (Homo sapiens, UniProt P43003). Put plainly: Impedance-based phenotypic assay on MDA-MB-468 cells. Type of assay: cell-based. The method, then: MDA-MB-468 cells were cultured as adherent cells in DMEM containing 10% (v/v) FCS, 2 mM Glutamax, 100 IU/ml penicillin and 100 μg/ml streptomycin (culture medium) at 37°C and 5% CO2. Cells were split twice weekly at 1:3–1:4 ratios in 10 cm culture dishes.
as §1, §2
as §3, with “States). In all experiments, nCI values of vehicle-only conditions were subtracted from all other conditions to correct for vehicle-induced, substrate-independent effects.” for “States).”

Each structure is given as a SMILES string. Counter-ions that a name gives are not always drawn. Like-named read-outs stand apart in the source and are kept apart here. Marks after values point to notes of the source that are not given here.

T1 sequence (P43003 whole entry, the tested form may be a part): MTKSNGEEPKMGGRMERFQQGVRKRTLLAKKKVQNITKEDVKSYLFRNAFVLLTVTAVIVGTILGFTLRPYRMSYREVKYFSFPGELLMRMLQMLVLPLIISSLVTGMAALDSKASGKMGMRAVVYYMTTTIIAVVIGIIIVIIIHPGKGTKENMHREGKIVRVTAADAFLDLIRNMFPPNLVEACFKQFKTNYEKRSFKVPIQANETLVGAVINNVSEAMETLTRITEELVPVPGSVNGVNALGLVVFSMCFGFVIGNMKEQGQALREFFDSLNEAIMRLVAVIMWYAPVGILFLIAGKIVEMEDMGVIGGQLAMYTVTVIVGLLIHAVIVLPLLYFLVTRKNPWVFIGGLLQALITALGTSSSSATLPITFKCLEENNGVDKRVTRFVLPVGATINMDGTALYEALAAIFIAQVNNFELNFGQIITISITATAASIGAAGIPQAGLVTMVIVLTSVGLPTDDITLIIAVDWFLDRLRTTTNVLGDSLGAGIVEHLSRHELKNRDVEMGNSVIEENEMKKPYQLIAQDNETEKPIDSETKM
Sequence of EAAT1 (endogenous, MDA-MB-468 cells) (P43003 whole entry): as the sequence (P43003 whole entry, the tested form may be a part) above

On to `N[C@@H](CCC(=O)O)C(=O)O` [L-glutamate, L-glutamic acid monosodium salt monohydrate], for which the “Change in cell morphology after stimulation” value in assay [1] is listed as “drastically extend their actin cytoskeleton outward”. Further, the EC50 is above 1000 µM in assay [2] (+dox, net AUC 0–15 min, read-out: Substrate pEC50 ± SEM (AUC = 0–15 min) (converted)); 316 µM in assay [2] (+dox, net AUC 0–120 min, read-out: Substrate pEC50 ± SEM (AUC = 0–120 min) (converted)); 100 µM in assay [2] (Substrate pEC50 ± SEM (AUC = 0–120 min), −dox, net AUC 0–120 min). In addition, in assay [3], the “Substrate pEC50 ± SEM” value was 4.0 ± 0.2 ^b.
